The text below walks through data of ChEMBL document CHEMBL1201862, “PubChem BioAssay data set” (2004).

Test systems include NCI-H522; SN12C; UACC-62; K562; OVCAR-5; HOP-62; SF-539; HCC 2998; MDA-N; PC-3; ACHN; LOX IMVI; KM12; COLO 205; OVCAR-3; HOP-92.
Holding throughout (test): NCI-60 cell line screen, 48 h

Structures are written as SMILES.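 Following 48 hours of exposure in 96-well plates, responses at five concentrations were used to interpolate endpoints linearly. The concentration for 50% growth inhibition is given as GI50.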 Activity calls are given as the source filed them. No stated cut-off is given here; in the data, active = GI50 up to about 1.1 µM and inactive = higher.

`CC(=O)O[C@@H]1C2=C(C)C=C(O2)[C@H]2O[C@]2(C)C[C@H]2C=C(C(=O)O2)[C@H](OC(C)=O)CC1[C@@]1(C)CO1` (stereo partly specified): the GI50 in the test on NCI-H522 is 3.23 µM (inactive); with SN12C, 21.3 µM (inactive); with UACC-62, 21.7 µM (inactive); in the test with K562 it was 17 µM (inactive); with OVCAR-5, 26.4 µM (inactive); in the test with HOP-62, 23 µM (inactive). The GI50 with SF-539 is 29.5 µM (inactive); with HCC 2998, > 100 µM (inactive); with MDA-N, 30.3 µM (inactive); with PC-3, 32.4 µM (inactive); with ACHN, 23.7 µM (inactive); with LOX IMVI it was 18.4 µM (inactive). Also, the values for the GI50 in the test on KM12 and with COLO 205 were 36.6 µM (inactive) and 14.1 µM (inactive), respectively.
For `O=[N+]([O-])/C(C(Cl)=C(Cl)Cl)=C(\Nc1ccccc1)n1nnc2ccccc21`, the GI50 in the test on SN12C was > 100 µM (inactive); with OVCAR-3 it was 48.1 µM (inactive); in the test with UACC-62 it was 40 µM (inactive); in the test with K562 it was > 100 µM (inactive); in the test with OVCAR-5, 42.1 µM (inactive); in the test with HOP-62, 30.6 µM (inactive). The GI50 in the test on SF-539 is 32.3 µM (inactive); with HCC 2998 it was > 100 µM (inactive); in the test on MDA-N it was 54.8 µM (inactive); with PC-3, 40.6 µM (inactive); in the test with ACHN it was > 100 µM (inactive); in the test with LOX IMVI it was 17.4 µM (inactive). Further, the GI50 is 20.5 µM (inactive) in the test with KM12 and 27 µM (inactive) in the test with COLO 205.
Take `COC(=O)c1cc(CC2Cc3cc4c(cc3C2=O)CCC4)cc2c1CCC2` (stereo unspecified): the GI50 with NCI-H522 is 54.3 µM (inactive); with SN12C, > 100 µM (inactive); in the test with OVCAR-3, > 100 µM (inactive); in the test with UACC-62, 95.1 µM (inactive); with K562, 39.1 µM (inactive); with OVCAR-5, > 100 µM (inactive). Besides, the GI50 was 53.1 µM (inactive) with HOP-62; > 100 µM (inactive) in the test with SF-539; > 100 µM (inactive) with HCC 2998; 70.6 µM (inactive) with MDA-N; 15.2 µM (inactive) in the test with PC-3; > 100 µM (inactive) in the test on ACHN. The GI50 was > 100 µM (inactive) in the test on LOX IMVI, > 100 µM (inactive) with KM12 and 93.3 µM (inactive) with COLO 205.
Take `CCOc1c(OC)cc(-c2nc3n(n2)C(=O)C(CC)S3)cc1OC` (stereo unspecified): the GI50 in the test with NCI-H522, with SN12C, in the test on OVCAR-3, with UACC-62, in the test with K562 and with OVCAR-5 was > 10 µM (inactive) in each case. The GI50 with HOP-62, with SF-539, with HCC 2998, in the test on MDA-N, in the test with PC-3 and with ACHN was > 10 µM (inactive) each time. Besides, the GI50 with LOX IMVI, with KM12 and with COLO 205 was > 10 µM (inactive) throughout.
As for `CCCC[C@@H]1CCN2C[C@@H](O)[C@@H](O)[C@H]2[C@@H]1O`, the GI50 with NCI-H522, in the test with OVCAR-3, with UACC-62, in the test with K562, in the test with OVCAR-5 and with SF-539 was > 100 µM (inactive) in each case. For the same molecule, the GI50 with HCC 2998, in the test on HOP-92, in the test on PC-3, in the test with ACHN, with LOX IMVI and in the test on KM12 was > 100 µM (inactive) throughout. In the test with COLO 205, the GI50 is > 100 µM (inactive).
For the molecule `COc1cc(/C=C/C(=O)C2(C(=O)/C=C/c3cc(OC)c(OC)c(OC)c3)CCCCC2)cc(OC)c1OC`, the GI50 in the test on NCI-H522 was 30.1 µM (inactive); with SN12C, 35.2 µM (inactive); in the test with OVCAR-3, 23.3 µM (inactive); in the test on UACC-62, 26.2 µM (inactive); with K562, 51.3 µM (inactive); in the test on OVCAR-5, 94.2 µM (inactive). Moreover, the GI50 in the test with HOP-62 was 55.6 µM (inactive); with SF-539 it was 19 µM (inactive); in the test with HCC 2998 it was 58.6 µM (inactive); in the test on HOP-92, 1.22 µM (inactive); with PC-3, 27.2 µM (inactive); with ACHN, 62.1 µM (inactive). Also, the GI50 is 38.7 µM (inactive) with LOX IMVI, 26.6 µM (inactive) in the test with KM12 and 78.9 µM (inactive) in the test on COLO 205.
As for `Cc1ccccc1/N=N/c1ccc(/N=N/c2c(O)ccc3cc(S(=O)(=O)O)cc(S(=O)(=O)O)c23)c(C)c1`, the GI50 with NCI-H522, with OVCAR-3, in the test with UACC-62, in the test with K562, with OVCAR-5 and with HOP-62 was > 100 µM (inactive) throughout. Further, the GI50 with SF-539, in the test on HCC 2998, in the test on HOP-92, in the test with PC-3, in the test on ACHN and in the test with KM12 was > 100 µM (inactive) throughout. Besides, the GI50 with COLO 205 is > 100 µM (inactive).
As for `COc1cc2c(/C=C3/C(=O)Nc4ccccc43)c(Cl)n(Cc3ccc(Cl)cc3)c2cc1C`, the GI50 in the test with NCI-H522 was 0.343 µM (active); in the test with SN12C, 0.226 µM (active); in the test with OVCAR-3 it was 0.207 µM (active); in the test with UACC-62, 0.28 µM (active); in the test with K562 it was 0.365 µM (active); with OVCAR-5 it was 0.656 µM (active). Besides, the GI50 is 0.237 µM (active) with HOP-62; 0.27 µM (active) in the test with SF-539; 0.134 µM (active) with HCC 2998; 11.8 µM (inactive) in the test with HOP-92; 0.608 µM (active) in the test on PC-3; 0.324 µM (active) in the test with ACHN. In addition, the GI50 in the test on LOX IMVI is 0.344 µM (active); with KM12 it was 0.33 µM (active); in the test with COLO 205, 0.256 µM (active).
As for `C1=N\CCN2CCN(CC/N=C\c3ccccc3OCc3cccc(n3)COc3ccccc3/1)CC2`, the GI50 in the test on NCI-H522 is 24.2 µM (inactive); in the test on SN12C, 10.6 µM (inactive); in the test on OVCAR-3 it was 1.3 µM (inactive); with UACC-62 it was 1.73 µM (inactive); in the test on K562 it was 2.48 µM (inactive); in the test with OVCAR-5, 9.18 µM (inactive). For the same molecule, the GI50 was 14.6 µM (inactive) in the test on HOP-62; 3 µM (inactive) with SF-539; 1.11 µM (active) with MDA-N; 3.89 µM (inactive) in the test on HOP-92; 9.46 µM (inactive) in the test on PC-3; 9.71 µM (inactive) with ACHN. For the same molecule, the GI50 with KM12 is 8.83 µM (inactive); with COLO 205, 19.6 µM (inactive).
As for `O=C1CCCCC/C1=C\c1ccc([N+](=O)[O-])cc1`, the GI50 was 23.7 µM (inactive) with SN12C; 21.9 µM (inactive) in the test with OVCAR-3; 27.8 µM (inactive) in the test with UACC-62; 50 µM (inactive) with K562; 31.4 µM (inactive) with OVCAR-5; 38.5 µM (inactive) with HOP-62. Further, the GI50 is 26.5 µM (inactive) with SF-539; 17.1 µM (inactive) in the test on HCC 2998; 42.4 µM (inactive) in the test with MDA-N; 38.6 µM (inactive) in the test on PC-3; 21.5 µM (inactive) in the test on ACHN; 19.8 µM (inactive) with KM12. The GI50 in the test on COLO 205 was 24 µM (inactive).
